Laboratory results: ChEMBL document CHEMBL1938230, “6-Position optimization of tricyclic 4-quinolone-based inhibitors of glycogen synthase kinase-3β: discovery of nitrile derivatives with picomolar potency” (Bioorg Med Chem Lett, 2012)

Key:
HL-60 [1] = assay: Inhibition of human MAP3K5/MAP3K6/MAP3K7 in HL-60 cells lysate assessed as reduction of labeling of acyl-phosphate ATP probe at 100 nM
[2] = molecular target: IKK epsilon/TBK1 (Homo sapiens) (UniProt Q14164+Q9UHD2); assay: Inhibition of human IKKepsilon/TBK1 in HL-60 cells lysate assessed as reduction of labeling of acyl-phosphate ATP probe at 100 nM; format: cell-free
[3] = molecular target: Interferon-induced, double-stranded RNA-activated protein kinase (Homo sapiens) (UniProt P19525); assay: Inhibition of human PKR in HL-60 cells lysate assessed as reduction of labeling of acyl-phosphate ATP probe at 100 nM; format: cell-free
[4] = molecular target: T1, Phosphatidylinositol 5-phosphate 4-kinase type-2 beta (Homo sapiens) (UniProt P78356); assay: Inhibition of human PIP4K2B in HL-60 cells lysate assessed as reduction of labeling of acyl-phosphate ATP probe at 100 nM; format: cell-free
T1 sequence (whole entry): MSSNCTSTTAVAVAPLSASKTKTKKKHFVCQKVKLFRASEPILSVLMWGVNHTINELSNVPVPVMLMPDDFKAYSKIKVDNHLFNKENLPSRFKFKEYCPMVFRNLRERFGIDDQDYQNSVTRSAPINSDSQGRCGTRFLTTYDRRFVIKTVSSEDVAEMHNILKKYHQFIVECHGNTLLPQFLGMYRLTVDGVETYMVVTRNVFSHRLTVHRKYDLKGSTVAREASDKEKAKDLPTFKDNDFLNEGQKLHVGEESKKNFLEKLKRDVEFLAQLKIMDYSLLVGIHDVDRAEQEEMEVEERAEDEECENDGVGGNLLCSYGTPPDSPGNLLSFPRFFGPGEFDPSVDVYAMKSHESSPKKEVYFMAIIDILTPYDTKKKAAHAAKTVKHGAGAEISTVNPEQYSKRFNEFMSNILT

[5] = molecular target: Cyclin-dependent kinase 7 (Homo sapiens) (UniProt P50613); assay: Inhibition of human CDK7 in HL-60 cells lysate assessed as reduction of labeling of acyl-phosphate ATP probe at 100 nM; format: cell-free
[6] = molecular target: Mitogen-activated protein kinase kinase kinase kinase 5 (Homo sapiens) (UniProt Q9Y4K4); assay: Inhibition of human KHS1 in HL-60 cells lysate assessed as reduction of labeling of acyl-phosphate ATP probe at 100 nM; format: cell-free
HL-60 [7] = assay: Inhibition of human MST4/YSK1 in HL-60 cells lysate assessed as reduction of labeling of acyl-phosphate ATP probe at 100 nM
[8] = molecular target: Tyrosine-protein kinase SYK (Homo sapiens) (UniProt P43405); assay: Inhibition of human SYK in HL-60 cells lysate assessed as reduction of labeling of acyl-phosphate ATP probe at 100 nM; format: cell-free
[9] = molecular target: Tyrosine-protein kinase JAK1 (Homo sapiens) (UniProt P23458); assay: Inhibition of human JAK1 domain2 in HL-60 cells lysate assessed as reduction of labeling of acyl-phosphate ATP probe at 100 nM; format: cell-free
[10] = molecular target: Serine/threonine-protein kinase B-raf (Homo sapiens) (UniProt P15056); assay: Inhibition of human BRAF in HL-60 cells lysate assessed as reduction of labeling of acyl-phosphate ATP probe at 100 nM; format: cell-free
[11] = molecular target: T2, Serine/threonine-protein kinase 4 (Homo sapiens) (UniProt Q13043); assay: Inhibition of human MST1 in HL-60 cells lysate assessed as reduction of labeling of acyl-phosphate ATP probe at 100 nM; format: cell-free
T2 sequence (whole entry): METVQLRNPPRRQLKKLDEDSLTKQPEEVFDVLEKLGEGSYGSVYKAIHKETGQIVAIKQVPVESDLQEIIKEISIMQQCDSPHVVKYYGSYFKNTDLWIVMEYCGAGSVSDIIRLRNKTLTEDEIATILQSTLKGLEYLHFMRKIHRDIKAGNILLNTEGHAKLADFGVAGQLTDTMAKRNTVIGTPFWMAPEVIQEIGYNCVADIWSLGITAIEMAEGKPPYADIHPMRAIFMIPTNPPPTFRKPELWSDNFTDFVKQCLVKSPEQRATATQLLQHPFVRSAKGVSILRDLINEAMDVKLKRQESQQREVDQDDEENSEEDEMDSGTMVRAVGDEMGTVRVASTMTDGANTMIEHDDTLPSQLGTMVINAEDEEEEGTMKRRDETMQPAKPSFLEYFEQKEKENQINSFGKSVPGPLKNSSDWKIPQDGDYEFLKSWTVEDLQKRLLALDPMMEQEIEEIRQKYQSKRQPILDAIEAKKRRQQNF

HL-60 [12] = assay: Inhibition of human CLK1/CLK4 in HL-60 cells lysate assessed as reduction of labeling of acyl-phosphate ATP probe at 100 nM
[13] = molecular target: TRAF2 and NCK-interacting protein kinase (Homo sapiens) (UniProt Q9UKE5); assay: Inhibition of human ZC2/TNIK in HL-60 cells lysate assessed as reduction of labeling of acyl-phosphate ATP probe at 100 nM; format: cell-free
[14] = molecular target: T3, Serine/threonine-protein kinase ULK3 (Homo sapiens) (UniProt Q6PHR2); assay: Inhibition of human ULK3 in HL-60 cells lysate assessed as reduction of labeling of acyl-phosphate ATP probe at 100 nM; format: cell-free
T3 sequence (whole entry): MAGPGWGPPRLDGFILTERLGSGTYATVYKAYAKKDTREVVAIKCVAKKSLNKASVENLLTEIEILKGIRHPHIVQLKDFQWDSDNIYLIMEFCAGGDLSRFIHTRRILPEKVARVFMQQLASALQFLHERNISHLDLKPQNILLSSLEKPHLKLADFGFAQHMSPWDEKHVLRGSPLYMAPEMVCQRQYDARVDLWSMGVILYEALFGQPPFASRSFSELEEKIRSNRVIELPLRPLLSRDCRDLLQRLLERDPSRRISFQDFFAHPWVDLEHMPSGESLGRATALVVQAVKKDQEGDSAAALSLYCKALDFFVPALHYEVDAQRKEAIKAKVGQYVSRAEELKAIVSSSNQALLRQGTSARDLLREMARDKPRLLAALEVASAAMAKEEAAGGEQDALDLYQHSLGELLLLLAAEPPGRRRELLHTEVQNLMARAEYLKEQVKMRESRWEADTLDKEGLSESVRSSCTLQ

[15] = molecular target: Mitogen-activated protein kinase kinase kinase 11 (Homo sapiens) (UniProt Q16584); assay: Inhibition of human MLK3 in HL-60 cells lysate assessed as reduction of labeling of acyl-phosphate ATP probe at 100 nM; format: cell-free

Chain of Cyclin-dependent kinase 7 (Homo sapiens) (P50613 whole entry): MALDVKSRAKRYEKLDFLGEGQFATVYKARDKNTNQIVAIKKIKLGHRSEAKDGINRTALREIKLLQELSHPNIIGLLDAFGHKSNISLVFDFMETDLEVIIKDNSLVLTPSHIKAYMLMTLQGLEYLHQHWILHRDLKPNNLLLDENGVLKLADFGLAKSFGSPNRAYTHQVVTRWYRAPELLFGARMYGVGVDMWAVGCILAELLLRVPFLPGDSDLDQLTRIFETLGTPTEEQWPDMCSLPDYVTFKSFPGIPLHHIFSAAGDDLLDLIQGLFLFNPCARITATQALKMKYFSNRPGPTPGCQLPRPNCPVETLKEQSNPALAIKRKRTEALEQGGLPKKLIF
Chain of Mitogen-activated protein kinase kinase kinase kinase 5 (Homo sapiens) (Q9Y4K4 whole entry, looked up): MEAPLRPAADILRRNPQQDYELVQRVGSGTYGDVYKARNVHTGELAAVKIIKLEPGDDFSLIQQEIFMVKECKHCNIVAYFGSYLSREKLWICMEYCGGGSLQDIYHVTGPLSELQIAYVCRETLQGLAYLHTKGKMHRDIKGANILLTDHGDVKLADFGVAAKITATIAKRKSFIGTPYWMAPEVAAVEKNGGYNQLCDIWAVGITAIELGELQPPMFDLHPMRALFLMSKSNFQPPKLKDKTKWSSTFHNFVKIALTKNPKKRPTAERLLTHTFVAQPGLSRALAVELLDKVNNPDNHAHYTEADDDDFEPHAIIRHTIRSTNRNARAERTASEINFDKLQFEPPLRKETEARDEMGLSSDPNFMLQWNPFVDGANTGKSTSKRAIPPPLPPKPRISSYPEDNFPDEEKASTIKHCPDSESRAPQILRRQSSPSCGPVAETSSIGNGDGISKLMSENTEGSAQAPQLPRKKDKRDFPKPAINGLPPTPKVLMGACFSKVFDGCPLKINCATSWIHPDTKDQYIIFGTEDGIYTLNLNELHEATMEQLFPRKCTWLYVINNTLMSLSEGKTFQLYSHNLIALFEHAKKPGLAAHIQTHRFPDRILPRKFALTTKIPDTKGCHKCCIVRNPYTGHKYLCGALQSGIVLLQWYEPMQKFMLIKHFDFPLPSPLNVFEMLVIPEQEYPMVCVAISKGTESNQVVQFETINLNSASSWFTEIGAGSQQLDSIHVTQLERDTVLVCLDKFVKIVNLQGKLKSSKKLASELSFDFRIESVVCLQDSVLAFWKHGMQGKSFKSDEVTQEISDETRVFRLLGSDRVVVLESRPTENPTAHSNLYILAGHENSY
Chain of TRAF2 and NCK-interacting protein kinase (Homo sapiens) (Q9UKE5 whole entry, looked up): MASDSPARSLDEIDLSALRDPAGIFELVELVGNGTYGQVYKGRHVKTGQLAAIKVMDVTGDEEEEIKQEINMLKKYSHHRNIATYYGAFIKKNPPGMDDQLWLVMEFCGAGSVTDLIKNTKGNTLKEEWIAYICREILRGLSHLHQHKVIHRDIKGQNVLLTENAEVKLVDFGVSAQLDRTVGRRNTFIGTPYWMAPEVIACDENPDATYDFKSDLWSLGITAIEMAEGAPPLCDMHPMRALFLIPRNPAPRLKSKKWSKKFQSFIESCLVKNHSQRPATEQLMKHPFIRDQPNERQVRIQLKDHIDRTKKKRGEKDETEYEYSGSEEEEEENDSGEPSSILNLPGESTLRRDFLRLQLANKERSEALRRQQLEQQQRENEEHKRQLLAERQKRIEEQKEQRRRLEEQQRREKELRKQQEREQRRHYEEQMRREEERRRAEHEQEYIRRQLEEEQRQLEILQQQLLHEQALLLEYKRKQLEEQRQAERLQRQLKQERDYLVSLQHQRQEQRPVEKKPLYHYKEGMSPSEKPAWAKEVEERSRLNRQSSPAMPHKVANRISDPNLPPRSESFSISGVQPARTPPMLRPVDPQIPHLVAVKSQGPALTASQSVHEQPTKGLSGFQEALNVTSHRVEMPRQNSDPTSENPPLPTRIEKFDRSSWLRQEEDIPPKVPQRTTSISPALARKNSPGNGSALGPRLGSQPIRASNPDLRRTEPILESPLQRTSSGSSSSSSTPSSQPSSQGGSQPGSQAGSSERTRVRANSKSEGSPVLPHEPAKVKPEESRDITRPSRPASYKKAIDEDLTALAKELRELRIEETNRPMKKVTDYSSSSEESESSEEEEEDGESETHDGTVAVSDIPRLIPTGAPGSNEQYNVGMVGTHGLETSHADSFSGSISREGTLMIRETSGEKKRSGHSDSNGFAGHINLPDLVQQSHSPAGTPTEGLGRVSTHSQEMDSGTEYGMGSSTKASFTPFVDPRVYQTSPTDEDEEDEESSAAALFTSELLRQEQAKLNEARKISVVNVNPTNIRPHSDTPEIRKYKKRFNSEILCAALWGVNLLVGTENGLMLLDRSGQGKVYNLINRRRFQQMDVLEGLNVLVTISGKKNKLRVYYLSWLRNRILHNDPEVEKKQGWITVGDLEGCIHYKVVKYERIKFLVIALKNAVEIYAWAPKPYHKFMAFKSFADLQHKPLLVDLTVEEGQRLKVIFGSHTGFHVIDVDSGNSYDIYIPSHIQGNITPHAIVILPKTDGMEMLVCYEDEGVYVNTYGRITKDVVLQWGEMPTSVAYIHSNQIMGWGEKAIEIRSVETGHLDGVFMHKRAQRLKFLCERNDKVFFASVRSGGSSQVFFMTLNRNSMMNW
Chain of Serine/threonine-protein kinase B-raf (Homo sapiens) (P15056 whole entry): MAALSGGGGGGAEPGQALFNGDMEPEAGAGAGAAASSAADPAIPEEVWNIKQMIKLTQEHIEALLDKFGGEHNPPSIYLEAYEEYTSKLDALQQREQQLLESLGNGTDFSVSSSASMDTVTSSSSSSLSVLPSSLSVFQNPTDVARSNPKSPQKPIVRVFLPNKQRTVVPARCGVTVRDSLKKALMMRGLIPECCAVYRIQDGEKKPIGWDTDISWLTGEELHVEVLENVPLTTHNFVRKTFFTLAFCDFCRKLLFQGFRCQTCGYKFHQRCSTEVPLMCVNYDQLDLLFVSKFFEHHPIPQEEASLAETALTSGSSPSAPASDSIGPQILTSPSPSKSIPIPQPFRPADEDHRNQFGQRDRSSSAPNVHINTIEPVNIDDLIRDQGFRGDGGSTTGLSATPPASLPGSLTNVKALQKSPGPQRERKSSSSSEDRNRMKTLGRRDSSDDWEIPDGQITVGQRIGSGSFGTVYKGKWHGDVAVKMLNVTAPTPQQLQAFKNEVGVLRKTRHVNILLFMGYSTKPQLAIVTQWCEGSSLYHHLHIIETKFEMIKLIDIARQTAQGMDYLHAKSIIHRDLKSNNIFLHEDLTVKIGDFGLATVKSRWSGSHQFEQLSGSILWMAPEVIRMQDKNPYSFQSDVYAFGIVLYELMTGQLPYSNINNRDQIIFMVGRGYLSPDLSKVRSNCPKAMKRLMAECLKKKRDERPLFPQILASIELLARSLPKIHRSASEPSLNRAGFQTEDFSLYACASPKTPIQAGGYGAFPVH
Chain of Interferon-induced, double-stranded RNA-activated protein kinase (Homo sapiens) (P19525 whole entry): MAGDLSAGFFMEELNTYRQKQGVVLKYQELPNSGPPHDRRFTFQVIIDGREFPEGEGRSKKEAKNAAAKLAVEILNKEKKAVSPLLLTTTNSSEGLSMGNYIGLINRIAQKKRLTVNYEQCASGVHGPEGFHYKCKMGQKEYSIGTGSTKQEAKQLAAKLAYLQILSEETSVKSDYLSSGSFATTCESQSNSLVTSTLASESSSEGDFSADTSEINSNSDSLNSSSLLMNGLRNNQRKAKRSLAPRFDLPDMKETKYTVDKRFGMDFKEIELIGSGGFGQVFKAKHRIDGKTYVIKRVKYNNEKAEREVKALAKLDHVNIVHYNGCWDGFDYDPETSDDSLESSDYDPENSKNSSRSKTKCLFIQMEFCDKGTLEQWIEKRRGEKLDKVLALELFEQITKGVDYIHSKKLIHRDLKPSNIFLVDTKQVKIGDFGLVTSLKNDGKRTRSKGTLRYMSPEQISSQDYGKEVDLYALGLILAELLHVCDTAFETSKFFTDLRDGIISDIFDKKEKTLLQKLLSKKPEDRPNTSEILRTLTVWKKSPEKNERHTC
Chain of Tyrosine-protein kinase JAK1 (Homo sapiens) (P23458 whole entry, the tested form may be a part): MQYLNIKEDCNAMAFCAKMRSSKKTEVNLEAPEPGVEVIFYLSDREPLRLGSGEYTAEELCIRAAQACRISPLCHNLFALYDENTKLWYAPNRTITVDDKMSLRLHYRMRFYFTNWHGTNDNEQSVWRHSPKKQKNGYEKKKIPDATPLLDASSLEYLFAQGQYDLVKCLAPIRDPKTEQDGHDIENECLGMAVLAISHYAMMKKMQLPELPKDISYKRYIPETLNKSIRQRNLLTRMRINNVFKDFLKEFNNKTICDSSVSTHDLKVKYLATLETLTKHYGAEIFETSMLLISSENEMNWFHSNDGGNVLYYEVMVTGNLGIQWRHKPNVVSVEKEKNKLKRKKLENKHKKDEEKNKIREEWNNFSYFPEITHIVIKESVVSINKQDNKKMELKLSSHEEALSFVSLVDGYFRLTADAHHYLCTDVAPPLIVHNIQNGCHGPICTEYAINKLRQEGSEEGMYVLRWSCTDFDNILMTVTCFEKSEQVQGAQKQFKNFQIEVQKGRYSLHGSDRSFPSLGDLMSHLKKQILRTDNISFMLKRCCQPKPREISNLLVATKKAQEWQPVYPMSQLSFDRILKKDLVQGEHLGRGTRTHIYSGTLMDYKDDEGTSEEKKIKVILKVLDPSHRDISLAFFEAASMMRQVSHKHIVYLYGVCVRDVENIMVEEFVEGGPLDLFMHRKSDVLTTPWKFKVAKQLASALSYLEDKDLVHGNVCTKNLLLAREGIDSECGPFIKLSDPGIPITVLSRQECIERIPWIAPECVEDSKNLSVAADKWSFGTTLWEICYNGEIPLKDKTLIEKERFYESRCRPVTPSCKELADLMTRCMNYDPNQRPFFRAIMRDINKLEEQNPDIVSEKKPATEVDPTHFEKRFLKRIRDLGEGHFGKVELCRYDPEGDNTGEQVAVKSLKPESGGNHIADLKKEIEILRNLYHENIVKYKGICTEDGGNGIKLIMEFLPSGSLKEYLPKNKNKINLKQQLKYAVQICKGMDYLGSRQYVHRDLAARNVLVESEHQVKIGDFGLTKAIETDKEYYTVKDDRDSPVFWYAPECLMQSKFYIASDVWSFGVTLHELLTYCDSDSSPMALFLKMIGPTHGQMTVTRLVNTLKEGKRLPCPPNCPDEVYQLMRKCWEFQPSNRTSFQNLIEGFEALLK

C[C@H]1COc2c(NCCCc3ccccn3)c(F)c(N)c3c(=O)c(C#N)cn1c23
< 35%: inhibition at 0.1 µM (HL-60 [1]) | inhibition [2] | inhibition [3] | inhibition [4] | inhibition [5] | inhibition [6] | inhibition at 0.1 µM (HL-60 [7]) | inhibition [8] | inhibition [9] | inhibition [10] | inhibition [11] | inhibition at 0.1 µM (HL-60 [12]) | inhibition [13] | inhibition [14] | inhibition [15]

C[C@H]1COc2c(NCCCc3ccccn3)c(F)c(N)c3c(=O)c(C(=O)O)cn1c23
< 35%: inhibition at 0.1 µM (HL-60 [1]) | inhibition [2] | inhibition [3] | inhibition [4] | inhibition [5] | inhibition [6] | inhibition at 0.1 µM (HL-60 [7]) | inhibition [8] | inhibition [9] | inhibition [10] | inhibition [11] | inhibition at 0.1 µM (HL-60 [12]) | inhibition [13] | inhibition [14] | inhibition [15]

C[C@H]1COc2c(NCCCn3cccn3)c(F)c(N)c3c(=O)c(C(=O)O)cn1c23
< 35%: inhibition at 0.1 µM (HL-60 [1]) | inhibition [2] | inhibition [3] | inhibition [4] | inhibition [5] | inhibition [6] | inhibition at 0.1 µM (HL-60 [7]) | inhibition [8] | inhibition [9] | inhibition [10] | inhibition [11] | inhibition at 0.1 µM (HL-60 [12]) | inhibition [13] | inhibition [14] | inhibition [15]

C[C@H]1COc2c(NCCCn3cccn3)c(F)c(N)c3c(=O)c(C#N)cn1c23
< 35%: inhibition at 0.1 µM (HL-60 [1]) | inhibition [2] | inhibition [3] | inhibition [4] | inhibition [5] | inhibition [6] | inhibition at 0.1 µM (HL-60 [7]) | inhibition [8] | inhibition [9] | inhibition [10] | inhibition [11] | inhibition at 0.1 µM (HL-60 [12]) | inhibition [13] | inhibition [14] | inhibition [15]
